Test results published in patent US20130302442A1, “METHODS OF USING (4S,4AS,5AR,12AS)-4-DIMETHYLAMINO-3,10,12,12A-TETRAHYDROXY-7-[(METHOXY(METHYL)AMINO)-METHYL]-1,11-DIOXO-1,4,4A,5,5A,6,11,12A-OCTAHYDRO-NAPHTHACENE-2-CARBOXYLIC ACID AMIDE” (priority 2012, published 2013).
Converted amounts (≈) assume the structure as drawn. Like-named read-outs stand apart in the source and are kept apart here.

Tests used:
Test in all cases: In vitro MIC testing, antibacterial spectrum of activity
S. agalactiae = type: cell-based
[1] = test system: Streptococcus spp. [Group C]; type: cell-based
S. pyogenes = type: cell-based
P. acnes = type: cell-based, Propionibacterium acnes
S. pneumoniae = type: cell-based, Streptococcus pneumoniae
S. aureus = type: cell-based, Staphylococcus aureus; settings: for MIC50 / MIC90: Staphylococcus aureus
E. faecium = type: cell-based; settings: for MIC50 / MIC90: Enterococcus faecium
S. haemolyticus = type: cell-based; settings: for MIC50 / MIC90: Staphylococcus haemolyticus
E. faecalis = type: cell-based; settings: for MIC50 / MIC90: Enterococcus faecalis
S. epidermidis = type: cell-based, Staphylococcus epidermidis; settings: for MIC50 / MIC90: Staphylococcus epidermidis
K. pneumoniae = type: cell-based; settings: K. pneumoniae (31 isolates); for MIC50 / MIC90: Klebsiella pneumoniae
Salmonella Spp. = type: cell-based; settings: for MIC50 / MIC90: Salmonella
P. mirabilis = type: cell-based; settings: Proteus mirabilis; P. mirabilis (30 isolates)
E. cloacae = type: cell-based; settings: Enterobacter cloacae; E. cloacae (30 isolates)
P. aeruginosa = type: cell-based; settings: P. aeruginosa (11 isolates); for MIC50 / MIC90: Pseudomonas aeruginosa
E. coli = type: cell-based; settings: Escherichia coli
[2] = Streptococcus spp. [Group C] (30 isolates)
[3] = S. pneumoniae [PSSP] (32 isolates)

Molecule: Penicillin
- MIC50 (S. agalactiae; S. agalactiae (31 isolates)): 0.03 µg/mL
- MIC90 (S. agalactiae; S. agalactiae (31 isolates)): 1 µg/mL
- MIC Range (S. agalactiae; S. agalactiae (31 isolates)): ≦0.015-2 μg/mL
- MIC50 [1, 2]: ≦0.015 μg/mL
- MIC90 [1, 2]: ≦0.015 μg/mL
- MIC Range [1, 2]: ≦0.015-0.03 μg/mL
- MIC50 (S. pyogenes; S. pyogenes (32 isolates)): ≦0.015 μg/mL
- MIC90 (S. pyogenes; S. pyogenes (32 isolates)): ≦0.015 μg/mL
- MIC Range (S. pyogenes; S. pyogenes (32 isolates)): ≦0.015-0.25 μg/mL
- MIC Range (P. acnes): 0.03 to 0.5 µg/mL
- MIC50 (S. pneumoniae; [3]): ≦0.015 μg/mL
- MIC90 (S. pneumoniae; [3]): 0.06 µg/mL
- MIC Range (S. pneumoniae; [3]): ≦0.015-0.12 μg/mL

Molecule: CC[C@H]1OC(=O)[C@H](C)[C@@H](O[C@H]2C[C@@](C)(OC)[C@@H](O)[C@H](C)O2)[C@H](C)[C@@H](O[C@@H]2O[C@H](C)C[C@H](N(C)C)[C@H]2O)[C@](C)(O)C[C@@H](C)C(=O)[C@H](C)[C@@H](O)[C@]1(C)O [Erythromycin]
- MIC50 (S. aureus; MRSA, S. aureus [MRSA] (31 isolates), read-out: MIC50): > 32 µg/mL
- MIC90 (S. aureus; MRSA, S. aureus [MRSA] (31 isolates), read-out: MIC90): > 32 µg/mL
- MIC50 (S. aureus; MSSA, S. aureus [MSSA] (32 isolates), read-out: MIC50): 0.5 µg/mL (≈ 0.681 µM)
- MIC90 (S. aureus; MSSA, S. aureus [MSSA] (32 isolates), read-out: MIC90): > 32 µg/mL
- MIC50 (S. agalactiae; Streptococcus agalactiae): 0.06 µg/mL (≈ 0.0818 µM)
- MIC90 (S. agalactiae; Streptococcus agalactiae): > 16 µg/mL
- MIC50 (E. faecium): > 32 µg/mL
- MIC90 (E. faecium): > 32 µg/mL
- MIC50 (E. faecium; VRE): > 32 µg/mL
- MIC90 (E. faecium; VRE): > 32 µg/mL
- MIC50 (S. haemolyticus; S. haemolyticus (33 isolates), read-out: MIC50): > 32 µg/mL
- MIC90 (S. haemolyticus; S. haemolyticus (33 isolates), read-out: MIC90): > 32 µg/mL
- MIC50 ([1]; Streptococcus spp. [Group C] (30 isolates), read-out: MIC50): 0.06 µg/mL (≈ 0.0818 µM)
- MIC90 ([1]; Streptococcus spp. [Group C] (30 isolates), read-out: MIC90): 4 µg/mL (≈ 5.45 µM)
- MIC50 (S. pyogenes; Streptococcus pyogenes): 0.06 µg/mL (≈ 0.0818 µM)
- MIC90 (S. pyogenes; Streptococcus pyogenes): 0.06 µg/mL (≈ 0.0818 µM)
- MIC50 (E. faecalis): > 32 µg/mL
- MIC90 (E. faecalis): > 32 µg/mL
- MIC50 (P. acnes; Cutibacterium acnes, read-out: MIC50): ≤ 0.06 µg/mL
- MIC90 (P. acnes; Cutibacterium acnes, read-out: MIC90): > 128 µg/mL
- MIC50 (S. epidermidis; S. epidermidis [MRSE] (32 isolates), read-out: MIC50): > 32 µg/mL
- MIC90 (S. epidermidis; S. epidermidis [MRSE] (32 isolates), read-out: MIC90): > 32 µg/mL
- MIC50 (S. epidermidis; S. epidermidis [MSSE] (31 isolates), read-out: MIC50): 0.25 µg/mL (≈ 0.341 µM)
- MIC90 (S. epidermidis; S. epidermidis [MSSE] (31 isolates), read-out: MIC90): > 32 µg/mL
- MIC50 (S. pneumoniae; Streptococcus pneumoniae, S. pneumoniae [PSSP] (32 isolates), read-out: MIC50): 0.03 µg/mL (≈ 0.0409 µM)
- MIC90 (S. pneumoniae; Streptococcus pneumoniae, S. pneumoniae [PSSP] (32 isolates), read-out: MIC90): 2 µg/mL (≈ 2.73 µM)

Molecule: CN[C@H](CC(C)C)C(=O)N[C@H]1C(=O)N[C@@H](CC(N)=O)C(=O)N[C@H]2C(=O)N[C@H]3C(=O)N[C@H](C(=O)N[C@H](C(=O)O)c4cc(O)cc(O)c4-c4cc3ccc4O)[C@H](O)c3ccc(c(Cl)c3)Oc3cc2cc(c3O[C@@H]2O[C@H](CO)[C@@H](O)[C@H](O)[C@H]2O[C@H]2C[C@](C)(N)[C@H](O)[C@H](C)O2)Oc2ccc(cc2Cl)[C@H]1O [Vancomycin]
- MIC Range (S. aureus; S. aureus [MRSA] (31 isolates)): 0.5 to 2 µg/mL
- MIC Range (S. aureus; S. aureus [MSSA] (32 isolates)): 0.5 to 1 µg/mL
- MIC50 (S. aureus; MRSA): 1 µg/mL (≈ 0.69 µM)
- MIC90 (S. aureus; MRSA): 1 µg/mL (≈ 0.69 µM)
- MIC50 (S. aureus; MSSA): 1 µg/mL (≈ 0.69 µM)
- MIC90 (S. aureus; MSSA): 1 µg/mL (≈ 0.69 µM)
- MIC Range (S. agalactiae; S. agalactiae (31 isolates)): 0.25 to 2 µg/mL
- MIC50 (S. agalactiae; Streptococcus agalactiae): 0.5 µg/mL (≈ 0.345 µM)
- MIC90 (S. agalactiae; Streptococcus agalactiae): 0.5 µg/mL (≈ 0.345 µM)
- MIC Range (E. faecium; E. faecium [VRE] (30 isolates)): >64 µg/mL
- MIC Range (E. faecium; E. faecium [VSE] (32 isolates)): 0.25 to 2 µg/mL
- MIC50 (E. faecium): 1 µg/mL (≈ 0.69 µM)
- MIC90 (E. faecium): 1 µg/mL (≈ 0.69 µM)
- MIC50 (E. faecium; VRE): > 64 µg/mL
- MIC90 (E. faecium; VRE): > 64 µg/mL
- MIC Range (S. haemolyticus; S. haemolyticus (33 isolates)): 0.5 to 2 µg/mL
- MIC50 (S. haemolyticus): 1 µg/mL (≈ 0.69 µM)
- MIC90 (S. haemolyticus): 1 µg/mL (≈ 0.69 µM)
- MIC50 ([1]; Streptococcus): 0.25 µg/mL (≈ 0.173 µM)
- MIC90 ([1]; Streptococcus): 0.5 µg/mL (≈ 0.345 µM)
- MIC Range [1, 2]: 0.25 to 1 µg/mL
- MIC Range (S. pyogenes; S. pyogenes (32 isolates)): 0.25 to 0.5 µg/mL
- MIC50 (S. pyogenes; Streptococcus pyogenes): 0.25 µg/mL (≈ 0.173 µM)
- MIC90 (S. pyogenes; Streptococcus pyogenes): 0.25 µg/mL (≈ 0.173 µM)
- MIC Range (E. faecalis; E. faecalis [VSE] (31 isolates)): 0.5 to 4 µg/mL
- MIC50 (E. faecalis): 1 µg/mL (≈ 0.69 µM)
- MIC90 (E. faecalis): 2 µg/mL (≈ 1.38 µM)
- MIC Range (P. acnes): 0.5-0.5 μg/mL
- MIC Range (S. epidermidis; S. epidermidis [MRSE] (32 isolates)): 1 to 2 µg/mL
- MIC Range (S. epidermidis; S. epidermidis [MSSE] (31 isolates)): 1 to 2 µg/mL
- MIC50 (S. epidermidis): 2 µg/mL (≈ 1.38 µM)
- MIC90 (S. epidermidis): 2 µg/mL (≈ 1.38 µM)
- MIC50 (S. epidermidis; MRSE): 2 µg/mL (≈ 1.38 µM)
- MIC90 (S. epidermidis; MRSE): 2 µg/mL (≈ 1.38 µM)
- MIC Range (S. pneumoniae; [3]): 0.06 to 0.25 µg/mL
- MIC50 (S. pneumoniae; Streptococcus pneumoniae): 0.25 µg/mL (≈ 0.173 µM)
- MIC90 (S. pneumoniae; Streptococcus pneumoniae): 0.25 µg/mL (≈ 0.173 µM)

Molecule: CC(=O)OCC1=C(C(=O)O)N2C(=O)[C@@H](NC(=O)Cc3cccs3)[C@H]2SC1 [Cephalothin]
- MIC Range (K. pneumoniae): >64 µg/mL
- MIC50 (K. pneumoniae): > 64 µg/mL
- MIC90 (K. pneumoniae): > 64 µg/mL
- MIC50 (Salmonella Spp.): 2 µg/mL (≈ 5.04 µM)
- MIC90 (Salmonella Spp.): 16 µg/mL (≈ 40.4 µM)
- MIC50 (P. mirabilis): 8 µg/mL (≈ 20.2 µM)
- MIC90 (P. mirabilis): > 64 µg/mL
- MIC50 (E. cloacae): > 64 µg/mL
- MIC90 (E. cloacae): > 64 µg/mL
- MIC Range (P. aeruginosa): >64 µg/mL
- MIC50 (P. aeruginosa): > 64 µg/mL
- MIC90 (P. aeruginosa): > 64 µg/mL
- MIC90 (E. coli): > 64 µg/mL

Molecule: O=C(O)c1cn(C2CC2)c2cc(N3CCNCC3)c(F)cc2c1=O [Ciprofloxacin]
- MIC50 (K. pneumoniae): > 2 µg/mL
- MIC90 (K. pneumoniae): > 2 µg/mL
- MIC50 (Salmonella Spp.): 0.015 µg/mL (≈ 0.0453 µM)
- MIC90 (Salmonella Spp.): 0.03 µg/mL (≈ 0.0905 µM)
- MIC Range (Salmonella Spp.; Salmonella Spp. (35 isolates)): 0.015 to 0.25 µg/mL
- MIC50 (P. mirabilis): > 2 µg/mL
- MIC90 (P. mirabilis): > 2 µg/mL
- MIC50 (P. aeruginosa): > 2 µg/mL
- MIC90 (P. aeruginosa): > 2 µg/mL
- MIC50 (E. coli): 0.015 µg/mL (≈ 0.0453 µM)
- MIC90 (E. coli): > 2 µg/mL
